According to patent US5447716A, “Process for lightening the skin or treating pigmental blemishes using a composition containing benzomorpholine or 3,4-dihydro-2H-1,4-benzoxazine derivatives” (L'Oreal, priority 1993, dated 1995):

What was measured:
fungal tyrosinase = assay: in vitro inhibition test of the activity of tyrosinase (dopachrome formation at 475 nm); assay type: biochemical; settings: inhibitor at 50 mol % with respect to tyrosine; L-dopa co-substrate; pH 6.5, 25° C.; lowering in maximum dopachrome (OD 475 nm at plateau) vs no inhibitor
Source text: Some of the compounds of general formula (I) have been studied in comparison with an equivalent molar amount of hydroquinone in the in vitro inhibition test of the activity of tyrosinase.
According to this test, the amount of dopachrome formed during the chain of reactions of conversion of tyrosine to melanins is monitored by visible spectrometry at 475 nm. These reactions are catalyzed in vitro by fungal tyrosinase, in the presence of a reducing co-substrate (for example, a small amount of L-dopa) in order to initiate the hydroxylation reaction of L-tyrosine to L-dopa, which is then catalytically oxidized to dopaquinone and then to dopachrome, an intermediate product before the non-enzymatic oxidation reactions which result in the formation of melanins.
The concentration of dopachrome formed with time in the presence and in the absence of the inhibitor is thus measured.
The inhibitor concentrations are set at 50 mol % with respect to the concentration of tyrosine in the reaction medium.
The inhibition effect is expressed by the lowering in the maximum amount of dopachrome formed (optical density value at 475 nm read at the plateau of the curve) with respect to the amount obtained in the absence of inhibitor.
A--0.1M Phosphate buffer, pH=6.5 (1% Tween 20)
B--2·10^-3 M Mother solution of L-tyrosine in A
C--10^-4 M Mother solution of L-dopa in A
D--Mother solution of fungal tyrosinase in A containing 2,400 units/ml
E--10^-2 M Mother solution of the inhibitor in A (Solutions C and D are to be prepared on the day)
reference cell: 3 ml of A
homogenize and equilibrate at 25° C.
mix rapidly and observe the kinetics by measuring the absorbance at 475 nm as a function of time.

[1] = in words, background; cited from earlier work
melanocytes = settings: in words, background; cited from earlier work

Row | Structure (SMILES) | % of inhibition (fungal tyrosinase) [%] | irritation [1] | cytotoxicity for melanocytes (melanocytes)
1 | Oc1ccc2c(c1)NCCO2 | -80 |  | 
2 | Oc1ccc2c(c1)OCCN2 | -71 |  | 
3 | Oc1ccc(O)cc1 [hydroquinone] | -33 | particularly irritating | cytotoxic
